We go through one compound from ChEMBL document CHEMBL1201862, “PubChem BioAssay data set” (2004).

Active and inactive are the calls of the source.

The target in assay [1] is T1, Exodeoxyribonuclease V (Escherichia coli (strain K12), UniProt P04993+P07648+P08394).
T1 sequence (P04993 whole entry): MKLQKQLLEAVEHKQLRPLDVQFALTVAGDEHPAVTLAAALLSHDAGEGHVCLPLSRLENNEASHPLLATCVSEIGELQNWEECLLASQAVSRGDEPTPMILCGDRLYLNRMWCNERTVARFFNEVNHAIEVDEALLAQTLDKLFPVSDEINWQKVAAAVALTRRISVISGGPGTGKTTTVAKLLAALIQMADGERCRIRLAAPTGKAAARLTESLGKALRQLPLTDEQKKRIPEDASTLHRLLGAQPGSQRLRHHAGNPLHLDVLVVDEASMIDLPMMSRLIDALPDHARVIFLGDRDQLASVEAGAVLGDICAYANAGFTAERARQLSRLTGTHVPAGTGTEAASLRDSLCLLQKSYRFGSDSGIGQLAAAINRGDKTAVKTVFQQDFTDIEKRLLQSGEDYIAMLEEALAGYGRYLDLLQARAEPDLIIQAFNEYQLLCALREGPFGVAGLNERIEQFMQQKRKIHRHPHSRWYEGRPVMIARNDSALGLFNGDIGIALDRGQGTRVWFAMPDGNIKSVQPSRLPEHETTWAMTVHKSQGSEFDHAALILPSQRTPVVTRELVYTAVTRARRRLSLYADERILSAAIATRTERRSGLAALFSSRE
T1 sequence (P07648 whole entry): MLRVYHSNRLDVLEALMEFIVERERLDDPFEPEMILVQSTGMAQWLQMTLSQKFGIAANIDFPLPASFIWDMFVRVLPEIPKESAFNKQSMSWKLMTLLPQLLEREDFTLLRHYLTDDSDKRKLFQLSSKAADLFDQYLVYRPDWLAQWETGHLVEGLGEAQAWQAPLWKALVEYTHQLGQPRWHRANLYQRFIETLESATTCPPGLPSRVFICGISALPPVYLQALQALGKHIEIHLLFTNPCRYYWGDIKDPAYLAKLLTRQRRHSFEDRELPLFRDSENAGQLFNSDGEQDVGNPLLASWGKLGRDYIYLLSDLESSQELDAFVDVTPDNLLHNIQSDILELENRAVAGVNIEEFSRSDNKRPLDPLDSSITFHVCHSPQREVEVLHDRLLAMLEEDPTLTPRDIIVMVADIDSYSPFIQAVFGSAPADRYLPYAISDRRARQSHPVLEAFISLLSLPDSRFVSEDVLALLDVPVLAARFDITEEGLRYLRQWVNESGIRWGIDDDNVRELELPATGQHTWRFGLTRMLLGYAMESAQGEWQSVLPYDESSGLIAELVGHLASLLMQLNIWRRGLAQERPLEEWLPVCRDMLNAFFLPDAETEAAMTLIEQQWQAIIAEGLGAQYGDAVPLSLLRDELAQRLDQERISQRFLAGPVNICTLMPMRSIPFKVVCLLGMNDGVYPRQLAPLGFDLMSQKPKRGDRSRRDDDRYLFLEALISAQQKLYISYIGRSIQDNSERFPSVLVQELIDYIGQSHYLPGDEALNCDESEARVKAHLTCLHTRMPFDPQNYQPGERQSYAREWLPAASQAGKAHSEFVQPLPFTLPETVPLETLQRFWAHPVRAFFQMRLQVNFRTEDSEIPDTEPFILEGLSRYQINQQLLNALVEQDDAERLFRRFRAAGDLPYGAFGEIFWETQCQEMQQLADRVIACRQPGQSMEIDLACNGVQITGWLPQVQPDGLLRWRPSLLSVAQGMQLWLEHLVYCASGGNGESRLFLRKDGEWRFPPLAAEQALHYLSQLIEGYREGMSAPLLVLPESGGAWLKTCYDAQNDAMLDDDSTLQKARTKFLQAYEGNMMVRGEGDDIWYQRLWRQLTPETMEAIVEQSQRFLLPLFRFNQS
T1 sequence (P08394 whole entry): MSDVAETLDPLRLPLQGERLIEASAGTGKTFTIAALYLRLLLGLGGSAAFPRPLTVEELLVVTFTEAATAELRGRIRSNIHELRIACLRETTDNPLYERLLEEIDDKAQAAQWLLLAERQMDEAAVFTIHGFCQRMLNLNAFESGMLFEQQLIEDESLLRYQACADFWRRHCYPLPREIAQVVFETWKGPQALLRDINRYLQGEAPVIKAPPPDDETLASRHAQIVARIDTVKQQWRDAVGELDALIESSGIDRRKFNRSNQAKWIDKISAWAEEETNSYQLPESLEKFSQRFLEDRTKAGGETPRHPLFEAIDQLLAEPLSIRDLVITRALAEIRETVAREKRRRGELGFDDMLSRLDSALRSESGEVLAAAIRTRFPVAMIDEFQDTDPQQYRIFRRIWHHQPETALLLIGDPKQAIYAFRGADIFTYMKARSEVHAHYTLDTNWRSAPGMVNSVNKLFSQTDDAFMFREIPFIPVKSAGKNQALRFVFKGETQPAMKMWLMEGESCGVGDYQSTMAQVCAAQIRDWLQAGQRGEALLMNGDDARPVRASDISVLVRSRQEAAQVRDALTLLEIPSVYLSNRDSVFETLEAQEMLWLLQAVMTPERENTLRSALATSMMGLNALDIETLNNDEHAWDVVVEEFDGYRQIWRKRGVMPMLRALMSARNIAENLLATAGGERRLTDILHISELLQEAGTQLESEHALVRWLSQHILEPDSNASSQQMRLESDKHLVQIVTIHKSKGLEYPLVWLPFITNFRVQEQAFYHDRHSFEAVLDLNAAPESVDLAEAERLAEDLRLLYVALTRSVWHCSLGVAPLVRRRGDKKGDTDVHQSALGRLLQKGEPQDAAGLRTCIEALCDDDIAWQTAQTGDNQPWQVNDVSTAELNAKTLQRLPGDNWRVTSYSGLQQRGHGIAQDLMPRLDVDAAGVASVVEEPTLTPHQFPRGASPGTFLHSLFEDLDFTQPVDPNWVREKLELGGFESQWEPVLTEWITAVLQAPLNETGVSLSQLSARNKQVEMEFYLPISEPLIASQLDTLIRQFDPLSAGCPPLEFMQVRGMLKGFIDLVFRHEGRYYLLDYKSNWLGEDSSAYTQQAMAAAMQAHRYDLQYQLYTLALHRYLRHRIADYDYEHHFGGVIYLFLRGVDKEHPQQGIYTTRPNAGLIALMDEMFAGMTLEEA
Description: E. coli RecBCD inhibitors, dose response, counter-screen for AddAB inhibitor project, absorbance, V66 E. coli, mutant T4 phage (AID 492957). The class given is functional, cell-based, Escherichia coli str. K-12 substr. MG1655. On the technique in general: Counterscreens check selectivity or assay interference.

Assay [2] has as its target 72 kDa type IV collagenase (Homo sapiens, UniProt P08253). Description: Dose Response validation of uHTS RPN11 inhibitor hits using a MMP-2 Fluorescence assay. The class given is functional.
The nature of assay [3]: HeLa cell cytotoxicity, dose response, cytotoxicity control for MgcRacGAP inhibitor project (AID 624300). The class given is functional.

The term IC50 denotes the concentration that inhibits the measured activity by half. Broadly, the CC50 is the concentration that lowers cell viability or growth by half.

Chain of 72 kDa type IV collagenase (P08253 whole entry): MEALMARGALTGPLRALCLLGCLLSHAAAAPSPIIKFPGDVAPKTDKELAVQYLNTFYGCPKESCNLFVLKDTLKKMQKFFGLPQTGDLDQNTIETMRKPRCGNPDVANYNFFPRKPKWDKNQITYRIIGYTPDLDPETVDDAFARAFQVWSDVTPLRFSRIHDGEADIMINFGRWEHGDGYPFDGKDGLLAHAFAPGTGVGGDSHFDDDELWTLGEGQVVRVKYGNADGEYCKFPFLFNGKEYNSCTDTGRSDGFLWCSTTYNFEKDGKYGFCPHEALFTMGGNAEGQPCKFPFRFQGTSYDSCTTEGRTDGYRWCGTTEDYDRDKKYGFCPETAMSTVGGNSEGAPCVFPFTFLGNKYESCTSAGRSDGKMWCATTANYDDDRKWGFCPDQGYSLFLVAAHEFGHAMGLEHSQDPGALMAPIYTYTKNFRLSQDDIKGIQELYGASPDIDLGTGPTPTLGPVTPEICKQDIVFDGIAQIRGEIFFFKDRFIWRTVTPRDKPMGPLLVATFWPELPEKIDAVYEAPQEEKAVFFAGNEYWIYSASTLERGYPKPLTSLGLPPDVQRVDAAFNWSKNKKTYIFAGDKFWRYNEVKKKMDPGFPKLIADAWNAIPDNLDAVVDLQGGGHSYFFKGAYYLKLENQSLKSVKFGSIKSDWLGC

As to `O=[N+]([O-])c1ccc(N/N=C/c2ccc[nH]2)cc1`, the IC50 was > 119 µM (inactive) in assay [1] and 70.3 µM (active) in assay [2]. The CC50 in assay [3] was 100 µM (active).
